Test systems include HCC 2998; RPMI-8226; SN12C; NCI-H226; UACC-62; MDA-N; OVCAR-8; OVCAR-4; ACHN; NCI-H23; OVCAR-5; A498; SW-620; SF-295; U-251; HOP-62; MCF7; KM12; CCRF-CEM; TK-10.
Experiment in all cases: inhibition of tumour cell growth, NCI panel, 48 h

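Five compound concentrations were applied to cells in 96-well plates for 48 hours; endpoints were derived by simple linear interpolation of the resulting dose-response curve. GI50: concentration for 50% inhibition of growth.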 Activity calls are given as the source filed them. Cut-off read from the data, not from the text of the source: active = GI50 up to about 1.1 µM and inactive = higher.

As for `Cc1cn(C2CC(SCCO)C(CO)O2)c(=O)[nH]c1=O` (centres undefined), the GI50 in the assay on HCC 2998, in the assay on RPMI-8226, in the assay on SN12C, with NCI-H226, in the assay with UACC-62 and in the assay on MDA-N was > 100 µM (inactive) each time. The GI50 with OVCAR-8, with OVCAR-4, with ACHN, in the assay on NCI-H23, with OVCAR-5 and in the assay on A498 was > 100 µM (inactive) in each case. In addition, the GI50 with SW-620, in the assay with SF-295, in the assay with U-251, in the assay with HOP-62, in the assay on MCF7 and with KM12 was > 100 µM (inactive) in each case. Further, the GI50 in the assay on CCRF-CEM was > 100 µM (inactive).
As for `Cc1ccc(OCC2OC(n3cnc4c(Cl)nc(Nc5cc(Cl)cc(Cl)c5)nc43)CC2Oc2ccc(C)cc2)cc1` (centres undefined), the GI50 in the assay with HCC 2998, with RPMI-8226, with SN12C, with NCI-H226, with UACC-62 and in the assay on MDA-N was > 100 µM (inactive) each time. Also, the GI50 is > 100 µM (inactive) in the assay with OVCAR-8; 10.4 µM (inactive) in the assay on OVCAR-4; > 100 µM (inactive) in the assay on ACHN; > 100 µM (inactive) in the assay on NCI-H23; > 100 µM (inactive) with OVCAR-5; > 100 µM (inactive) in the assay with A498. For the same compound, the GI50 in the assay with SW-620, in the assay on SF-295, in the assay with U-251, with MCF7, in the assay on KM12 and in the assay with CCRF-CEM was > 100 µM (inactive) in each case.
`C/C=C(/C)C(=O)O[C@H](C[C@@H](C)[C@H]1CC(c2ccoc2)OC1=O)[C@@]1(C)C(=O)CCC2O[C@]21C` (some centres undefined): the GI50 in the assay on HCC 2998, in the assay with RPMI-8226, in the assay on NCI-H226, in the assay with UACC-62, with MDA-N and in the assay with OVCAR-8 was > 100 µM (inactive) each time. In addition, the GI50 in the assay on OVCAR-4, in the assay with ACHN, in the assay on NCI-H23, in the assay with OVCAR-5, with A498 and in the assay on SW-620 was > 100 µM (inactive) each time. The GI50 in the assay on SF-295, in the assay on U-251, in the assay with MCF7, with TK-10, with KM12 and in the assay on CCRF-CEM was > 100 µM (inactive) throughout.
`Cc1ccc(/N=C2\SC(=S)N(CCC[N+](C)(C)C)\C2=N/c2ccc(C)cc2)cc1`: the GI50 with HCC 2998 was 15.9 µM (inactive); with RPMI-8226 it was 6.01 µM (inactive); in the assay on SN12C, 11.2 µM (inactive); in the assay with NCI-H226, 21.7 µM (inactive); with UACC-62 it was 10 µM (inactive); in the assay on MDA-N, 12.8 µM (inactive). Further, the GI50 is 15.4 µM (inactive) in the assay with OVCAR-8; 13.2 µM (inactive) in the assay on ACHN; 14.5 µM (inactive) in the assay on NCI-H23; 14.5 µM (inactive) in the assay with OVCAR-5; 17.2 µM (inactive) with A498; 20.7 µM (inactive) in the assay with SW-620. Also, the GI50 with U-251 was 11.3 µM (inactive); in the assay on HOP-62, 23.7 µM (inactive); in the assay with MCF7 it was 21.6 µM (inactive); with TK-10 it was 18.9 µM (inactive); in the assay with KM12, 24.4 µM (inactive); in the assay on CCRF-CEM, 19.1 µM (inactive).
On to `CC(C)CCCC(C)[C@H]1CC[C@H]2n3c(nnc3-c3ccccc3)CCC[C@]12C` (some centres undefined), for which the GI50 with HCC 2998 was < 0.01 µM (active); with RPMI-8226, 4.13 µM (inactive); with SN12C, 8.91 µM (inactive); in the assay with NCI-H226, 14.8 µM (inactive); in the assay with UACC-62 it was 12.4 µM (inactive); in the assay on MDA-N, 13.6 µM (inactive). Besides, the GI50 in the assay with OVCAR-8 is 15.9 µM (inactive); with OVCAR-4, 12.5 µM (inactive); with NCI-H23, 12.4 µM (inactive); with A498 it was 14 µM (inactive); in the assay with SW-620 it was 6.21 µM (inactive); in the assay on SF-295, 9.08 µM (inactive). In addition, the GI50 in the assay on U-251 is 7.19 µM (inactive); with HOP-62, 16 µM (inactive); in the assay on MCF7 it was 5.97 µM (inactive); in the assay on TK-10, 21.5 µM (inactive); with KM12 it was 28.8 µM (inactive); in the assay with CCRF-CEM, 3.49 µM (inactive).
Take `CN(C)CCNS(=O)(=O)N(C)C`: the GI50 in the assay on RPMI-8226, in the assay with SN12C, in the assay on NCI-H226, with UACC-62, with MDA-N and in the assay on OVCAR-8 was > 100 µM (inactive) throughout. Further, the GI50 with OVCAR-4, in the assay with ACHN, in the assay with NCI-H23, in the assay with OVCAR-5, in the assay with A498 and in the assay on SW-620 was > 100 µM (inactive) in each case. Also, the GI50 with SF-295, in the assay on U-251, with HOP-62, in the assay on MCF7, in the assay with TK-10 and in the assay on KM12 was > 100 µM (inactive) throughout. Further, the GI50 with CCRF-CEM is > 100 µM (inactive).
`COc1ccc(S(=O)(=O)N2C(=O)CCC2C(=O)NC(N)=O)cc1` (centres undefined): the GI50 in the assay with RPMI-8226, with SN12C, with NCI-H226, with UACC-62, with MDA-N and in the assay with OVCAR-8 was > 100 µM (inactive) throughout. The GI50 in the assay on OVCAR-4, with ACHN, with NCI-H23, in the assay with OVCAR-5, in the assay on A498 and in the assay with SW-620 was > 100 µM (inactive) each time. Besides, the GI50 in the assay with SF-295, in the assay with U-251, in the assay on HOP-62, in the assay with MCF7, in the assay with TK-10 and with KM12 was > 100 µM (inactive) each time. In addition, the GI50 in the assay on CCRF-CEM is > 100 µM (inactive).
In the case of `O=C(O)CS(=O)(=O)C(c1ccccc1)c1ccccc1`, the GI50 in the assay with RPMI-8226, with SN12C, with NCI-H226, with UACC-62, in the assay on MDA-N and in the assay on OVCAR-8 was > 100 µM (inactive) in each case. For the same compound, the GI50 in the assay on OVCAR-4, in the assay on ACHN, in the assay with NCI-H23, with OVCAR-5, in the assay with A498 and in the assay on SW-620 was > 100 µM (inactive) throughout. Also, the GI50 in the assay on SF-295, in the assay on U-251, with HOP-62, with MCF7, with TK-10 and in the assay on KM12 was > 100 µM (inactive) each time. Besides, in the assay on CCRF-CEM, the GI50 was > 100 µM (inactive).
For `S=C(N/N=C\C(=N/NC(=S)N1CCCCC1)c1ccccc1)N1CCCCC1`, the GI50 in the assay on HCC 2998 was 2.08 µM (inactive); with RPMI-8226, 46.1 µM (inactive); in the assay with SN12C, 1.95 µM (inactive); in the assay with NCI-H226 it was 1.84 µM (inactive); in the assay with UACC-62, 1.99 µM (inactive); with MDA-N, 2.89 µM (inactive). In addition, the GI50 was 1.76 µM (inactive) in the assay with OVCAR-4; 1.69 µM (inactive) in the assay on ACHN; 2.42 µM (inactive) in the assay on NCI-H23; 1.88 µM (inactive) in the assay with OVCAR-5; 1.78 µM (inactive) in the assay with A498; 2 µM (inactive) in the assay with SW-620. Moreover, the GI50 is 2.01 µM (inactive) with SF-295; 1.84 µM (inactive) in the assay on U-251; 2.43 µM (inactive) in the assay on HOP-62; 2.81 µM (inactive) with MCF7; 1.8 µM (inactive) in the assay on TK-10; 2.03 µM (inactive) with KM12.
`O=S(=O)(/N=S(/Nc1ccccc1)C(F)(F)Cl)c1ccccc1` (centres undefined): the GI50 in the assay on RPMI-8226, in the assay on SN12C, in the assay on NCI-H226, in the assay with UACC-62, in the assay on MDA-N and in the assay with OVCAR-8 was > 100 µM (inactive) throughout. Besides, the GI50 in the assay on OVCAR-4, in the assay on ACHN, in the assay with NCI-H23, in the assay with OVCAR-5, in the assay on A498 and in the assay on SW-620 was > 100 µM (inactive) in each case. In addition, the GI50 in the assay on SF-295, in the assay on U-251, in the assay with HOP-62, in the assay on MCF7, in the assay on TK-10 and with KM12 was > 100 µM (inactive) each time. For the same compound, the GI50 in the assay with CCRF-CEM was > 100 µM (inactive).
Consider `CCOC(=O)C1(N)CC1`, for which the GI50 in the assay on HCC 2998, with RPMI-8226, in the assay on SN12C, in the assay on NCI-H226, in the assay on MDA-N and in the assay on OVCAR-8 was > 100 µM (inactive) throughout. The GI50 with OVCAR-4, in the assay with ACHN, in the assay on NCI-H23, in the assay on OVCAR-5, in the assay with A498 and with SW-620 was > 100 µM (inactive) each time. Also, the GI50 in the assay on SF-295, in the assay on U-251, with HOP-62, with MCF7, in the assay with TK-10 and in the assay with KM12 was > 100 µM (inactive) in each case. The GI50 in the assay with CCRF-CEM was > 100 µM (inactive).

The record behind these values is ChEMBL document CHEMBL1201862, “PubChem BioAssay data set” (2004).
